Several values for one entry are separate records, joined by “and”; a condition that tells them apart may be missing. Equal entries are not always repeated.
Tested on: PK1 expression in endometrial tissue
Assay: PK1 expression in endometrial tissue incubated with progesterone, Taqman quantitative RT-PCR
Type: cell-based, human
Details: endometrial tissue (n=5), 1 μM progesterone, 24 hours, control ethanol; mean ± SEM; p<0.05
Description: RNA was extracted from endometrial biopsies obtained from across the menstrual cycle (n=35) using Tri Reagent (Sigma, Poole, UK) following the Manufacturer's instructions. RNA samples were quantified and were reverse transcribed using 5.5 mmol 1^−1 MgCl2, 0.5 mmol 1^−1 of each deoxynucleotide triphosphate (dNTP), 2.5 μmol 1^−1 random hexamers, ribonuclease inhibitor (0.4 U μl^−1) and 1.25 U μl^−1 Multiscribe reverse transcriptase (all from Applied Biosystems, Warrington, UK). RNA (400 ng) was added to each reverse transcription reaction and samples were incubated for 90 minutes at 25° C., 45 minutes at 48° C. and 5 minutes at 95° C. The reaction mix for the polymerase chain reaction (PCR) consisted of 1× mastermix, ribosomal 18S forward and reverse primers, Ribosomal 18S probe (50 nmol 1^−1; all from Applied Biosystems, Warrington, UK), forward and reverse primers for PK1, PK2, PKR1 and PKR2 (300 nmol 1^−1) and their probes (200 nmol 1^−1) (all from Biosource UK, Nivelles, Belgium). The reaction mix (48 μl) was aliquoted into tubes and 2 μl cDNA was added. Duplicate 24 μl samples plus positive and negative controls were placed in a PCR plate and wells were sealed with optical caps. […] Data were analysed and processed using Sequence Detector version 1.6.3 (Applied Biosystems, Warrington, UK) according to manufacturer's instructions. […]

CC(=O)[C@H]1CC[C@H]2[C@@H]3CCC4=CC(=O)CC[C@]4(C)[C@H]3CC[C@]12C [progesterone]
fold increase in PK1 expression compared with controls: 2.91 fold and 2.91(±0.75) fold

From patent US7615210B2, “Treatment of endometriosis” (Medical Research Council, priority 2003, dated 2009)
